Data as given in patent publication US9976141B2, “Compositions and methods for inhibiting gene expression of Hif2alpha” (Arrowhead Madison Inc., priority 2015, dated 2018).

Tested on: human (tumor) Hif2α (EPAS1) mRNA
Assay: Hif2α knockdown in orthotopic RCC tumor bearing mice, single injection of RNAi trigger-delivery polymer conjugate, RT-qPCR (Table 7)
Assay type: in vivo
Conditions: single tail vein injection, relative to isotonic glucose
Procedure, shortened: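 Female athymic nude mice carried orthotopic A498-SEAP ccRCC kidney tumours, used 5–6 weeks after implantation. They received one tail-vein injection of RGD-targeted Hif2α RNAi trigger–polymer conjugate or isotonic glucose. Tumour Hif2α mRNA was measured by TaqMan RT-qPCR normalised to CycA (ΔΔCT) and expressed relative to glucose-treated mice.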

[1] = RNAi trigger 100 μg, polymer 100A 250 μg
[2] = RNAi trigger 100 μg, polymer 064 250 μg

Row | Substance | Relative Expression day 4 (Hif2α mRNA in kidney tumor) [1] | Relative Expression day 4 (Hif2α mRNA in kidney tumor) [2] | other results
1 | AD01655 (antisense TUUCAUGAAAUCGUUACGUTT; sense ACGUAACGAUUUCAUGAAAT; Hif2alpha RNAi agent antisense strand; modified_base 2,4,6,8,10,13,14,16,18 /mod_base = “2′-deoxy-2′-fluoro corresponding nucleoside”; modified_base 3,5,7,9,11,12,15,17,19 /mod_base = “2′-O-methyl corresponding nucleoside”; modified_base 2,21 /mod_base = “5′-phosphorothioate corresponding nucleotide”; Hif2alpha RNAi agent sense strand; modified_base 1,3,5,8,9,11,13,15,17,19 /mod_base = “2′-deoxy-2′-fluoro corresponding nucleoside”; modified_base 2,4,6,7,10,12,14,16,18 /mod_base = “2′-O-methyl corresponding nucleoside”; modified_base 20 /mod_base = “3′-3′-linked nucleotide”; modified_base 1 /) | 0.234 | – | –
2 | AD01656 (antisense TUUCAUGAAAUCGUUACGUTT; sense ACGUAACGAUUUCAUGAAA; Hif2alpha RNAi agent antisense strand; modified_base 2,4,6,8,10,12,14,15,18 /mod_base = “2′-deoxy-2′-fluoro corresponding nucleoside”; modified_base 3,5,7,9,11,13,16,17,19 /mod_base = “2′-O-methyl corresponding nucleoside”; modified_base 2,21 /mod_base = “5′-phosphorothioate corresponding nucleotide”; Hif2alpha RNAi agent sense strand; modified_base 1,3,4,7,9,11,13,15,17,19 /mod_base = “2′-deoxy-2′-fluoro corresponding nucleoside”; modified_base 2,5,6,8,10,12,14,16,18 /mod_base = “2′-O-methyl corresponding nucleoside”; modified_base 2 /mod_base = “5′-phosphorothioate corresponding nucleotide) | 0.184 | – | –
3 | AD01657 (antisense TUUCAUGAAAUCGUUACGUTT; sense ACGUAACGAUUUCAUGAAAT; Hif2alpha RNAi agent antisense strand; modified_base 2,4,6,8,10,12,14,15,18 /mod_base = “2′-deoxy-2′-fluoro corresponding nucleoside”; modified_base 3,5,7,9,11,13,16,17,19 /mod_base = “2′-O-methyl corresponding nucleoside”; modified_base 2,21 /mod_base = “5′-phosphorothioate corresponding nucleotide”; Hif2alpha RNAi agent sense strand; modified_base 1,3,4,7,9,11,13,15,17,19 /mod_base = “2′-deoxy-2′-fluoro corresponding nucleoside”; modified_base 2,5,6,8,10,12,14,16,18 /mod_base = “2′-O-methyl corresponding nucleoside”; modified_base 20 /mod_base = “3′-3′-linked nucleotide”; modified_base 1 /) | 0.256 | – | –
4 | AD01658 (antisense TUUCAUGAAAUCGUUACGUTT; sense ACGUAACGAUUUCAUGAAA; Hif2alpha RNAi agent antisense strand; modified_base 2,4,6,8,10,12,14,15,18 /mod_base = “2′-deoxy-2′-fluoro corresponding nucleoside”; modified_base 3,5,7,9,11,13,16,17,19 /mod_base = “2′-O-methyl corresponding nucleoside”; modified_base 2,3,21 /mod_base = “5′-phosphorothioate corresponding nucleotide”; Hif2alpha RNAi agent sense strand; modified_base 1,3,4,7,9,11,13,15,17,19 /mod_base = “2′-deoxy-2′-fluoro corresponding nucleoside”; modified_base 2,5,6,8,10,12,14,16,18 /mod_base = “2′-O-methyl corresponding nucleoside”; modified_base 2 /mod_base = “5′-phosphorothioate corresponding nucleoti) | 0.138 | – | –
5 | AD01659 (antisense TUUCAUGAAAUCGUUACGUTT; sense ACGUAACGAUUUCAUGAAAT; Hif2alpha RNAi agent antisense strand; modified_base 2,4,6,8,10,12,14,15,18 /mod_base = “2′-deoxy-2′-fluoro corresponding nucleoside”; modified_base 3,5,7,9,11,13,16,17,19 /mod_base = “2′-O-methyl corresponding nucleoside”; modified_base 2,3,21 /mod_base = “5′-phosphorothioate corresponding nucleotide”; Hif2alpha RNAi agent sense strand; modified_base 1,3,4,7,9,11,13,15,17,19 /mod_base = “2′-deoxy-2′-fluoro corresponding nucleoside”; modified_base 2,5,6,8,10,12,14,16,18 /mod_base = “2′-O-methyl corresponding nucleoside”; modified_base 20 /mod_base = “3′-3′-linked nucleotide”; modified_base 1) | 0.249 | – | –
6 | AD01884 (antisense UUUCAUGAAAUCGUUACGUTT; sense ACGUAACGAUUUCAUGAAAT; Hif2alpha RNAi agent antisense strand; modified_base 2,4,6,8,10,14,16,18 /mod_base = “2′-deoxy-2′-fluoro corresponding nucleoside”; modified_base 1,3,5,7,9,11,12,13,15,17,19 /mod_base = “2′-O-methyl corresponding nucleoside”; modified_base 2,3,21 /mod_base = “5′-phosphorothioate corresponding nucleotide”; Hif2alpha RNAi agent sense strand; modified_base 1,3,5,7,8,9,11,13,15,17,19 /mod_base = “2′-deoxy-2′-fluoro corresponding nucleoside”; modified_base 2,4,6,10,12,14,16,18 /mod_base = “2′-O-methyl corresponding nucleoside”; modified_base 20 /mod_base = “3′-3′-linked nucleotide”; modified_base) | – | 0.091 | Relative Expression day 4 (Hif2α mRNA in kidney tumor) (RNAi trigger 50 μg, polymer 064 125 μg): 0.203; Relative Expression day 4 (Hif2α mRNA in kidney tumor) (RNAi trigger 75 μg, polymer 064 187.5 μg): 0.227
7 | AD01885 (antisense UUUCAUGAAAUCGUUACGUTT; sense UAUACGUAACGAUUUCAUGAAAT; Hif2alpha RNAi agent antisense strand; modified_base 2,4,6,8,10,14,16,18 /mod_base = “2′-deoxy-2′-fluoro corresponding nucleoside”; modified_base 1,3,5,7,9,11,12,13,15,17,19 /mod_base = “2′-O-methyl corresponding nucleoside”; modified_base 2,3,21 /mod_base = “5′-phosphorothioate corresponding nucleotide”; Hif2alpha RNAi agent sense strand; modified_base 2 modified base = “2′-hydroxy corresponding nucleoside”; modified_base 4,6,8,10,11,12,14,16,18,20,22 /mod_base = “2′-deoxy-2′-fluoro corresponding nucleoside”; modified_base 1,3,5,7,9,13,15,17,19,21 /mod_base = “2′-O-methyl corresponding nucl) | – | 0.146 | –
8 | AD01886 (antisense UCUAGCAACAAAACCUUAATT; sense UUAAGGUUUUGUUGCUAGAT; Hif2alpha RNAi agent antisense strand; modified_base 2,4,6,8,10,13,14,16,18 /mod_base = “2′-deoxy-2′-fluoro corresponding nucleoside”; modified_base 1,3,5,7,9,11,12,15,17,19 /mod_base = “2′-O-methyl corresponding nucleoside”; modified_base 2,3,21 /mod_base = “5′-phosphorothioate corresponding nucleotide”; Hif2alpha RNAi agent sense strand; modified_base 1,3,5,8,9,11,13,15,17,19 /mod_base = “2′-deoxy-2′-fluoro corresponding nucleoside”; modified_base 2,4,6,7,10,12,14,16,18 /mod_base = “2′-O-methyl corresponding nucleoside”; modified_base 20 /mod_base = “3′-3′-linked nucleotide”; modified_base) | – | 0.292 | –
9 | AD01887 (antisense UCUAGCAACAAAACCUUAATT; sense UUAAGGUUUUGUUGCUAGAT; Hif2alpha RNAi agent antisense strand; modified_base 2,4,6,9,10,13,14,16,18 /mod_base = “2′-deoxy-2′-fluoro corresponding nucleoside”; modified_base 1,3,5,7,8,11,12,15,17,19 /mod_base = “2′-O-methyl corresponding nucleoside”; modified_base 2,3,21 /mod_base = “5′-phosphorothioate corresponding nucleotide”; Hif2alpha RNAi agent sense strand; modified_base 3,5,8,9,13,15,17 /mod_base = “2′-deoxy-2′-fluoro corresponding nucleoside”; modified_base 1,2,4,6,7,10,11,12,14,16,18,19 /mod_base = “2′-O-methyl corresponding nucleoside”; modified_base 20 /mod_base = “3′-3′-linked nucleotide”; modified_base) | – | 0.329 | –
